Values of other authors, collected in US10092545B2, “Nutritional supplements for improving female fertility” (Fairhaven Health, LLC, priority 2016, dated 2018).

How the values were obtained:
[1] = test system: oocyte-specific Pdss2-deficient animals; details: maternal dietary administration
obese women with PCOS = details: administering for as little as two months
females = females taking myo-inositol

Question: For `COC1=C(OC)C(=O)C(C/C=C(\C)CC/C=C(\C)CC/C=C(\C)CC/C=C(\C)CC/C=C(\C)CC/C=C(\C)CC/C=C(\C)CC/C=C(\C)CC/C=C(\C)CCC=C(C)C)=C(C)C1=O` [CoQ10, Coenzyme Q10], which premature ovarian failure [1] is on record?
Answer: could be prevented

Question: With `[Cr]` [chromium] as the compound, how does the “improvement of insulin sensitivity” value (obese women with PCOS) read?
Answer: more than 30%

Question: Which results are given for `COc1ccc2[nH]cc(CCNC(C)=O)c2c1` [melatonin]?
Answer: fertilization and pregnancy rates (infertile women): elevates; intra-follicular melatonin concentrations (infertile women): increases; intra-follicular oxidative damage (infertile women): reduces

Question: Which insulin sensitivity (females) does the source give for `O[C@H]1[C@H](O)[C@@H](O)[C@H](O)[C@@H](O)[C@H]1O` [myo-inositol] here?
Answer: increased

Question: What about the serum testosterone level (females) of the same compound?
Answer: decreased
